Experimental data taken from article PMC7579906, “Discovery of a dual inhibitor of NQO1 and GSTP1 for treating glioblastoma” (Journal of Hematology & Oncology, 2020).

Columns and labels:
[1] = test system: U87MG/EGFRvIII cells; test: Cell proliferation (MTT) assay, U87MG/EGFRvIII; assay type: cell-based, human; conditions: Homo sapiens, U-87 MG; inhibition of cell proliferation/viability; MNPC treated 72 h
Experimental: (§1) The human glioblastoma cell line U87MG was stably transfected with vector control, pLHCX-EGFRvIII, pGFP-NQO1 and pRS-GSTP1, which were supplemented with various antibiotics. For EGFRvIII, 150 μg/mL of hygromycin was used; for pGFP-NQO1 and pRS-GSTP1, 0.7 μg/mL of puromycin was employed. The cells were supplemented with 10% fetal bovine serum (Hyclone, USA), penicillin (100 U/ml) and streptomycin (100 U/ml) (ABAM Life Technologies, USA) in a humidified incubator with 5% CO2 at 37 °C.
(§2) In vitro assessment was implemented for cell proliferation using the 3-(4, 5- dimethylthiazol- 2-yl)-2,5-diphenyltetrazolium bromide (MTT) assay. After different treatments with specific time periods, 10 μL of MTT (5 mg/mL in PBS, Sigma, USA) was added to each well and the plates were incubated for 3 h at 37 °C. The resulting formazan product was dissolved with DMSO. The absorbance at a wavelength of 490 nm was recorded using a microplate reader (BioTek Instruments Inc., USA).

[2] = test system: U87MG cells; test: Cell proliferation (MTT) assay, parental U87MG; assay type: cell-based; conditions: Homo sapiens, U-87 MG, inhibition of cell proliferation/viability
Experimental: as §1, §2

| SMILES | IC50 [1] [µM] | IC50 [2] [µM] |
| --- | --- | --- |
| Cc1ccc(C)c(-c2csc(NC(=O)c3ccc(-c4ccccc4)cc3)n2)c1 [Compound 21] | 1.67 | 16.6 |
| Cc1ccc(C(=O)Nc2nc(-c3ccccc3)c(C)s2)cc1 [Compound 22] | 2.42 | 11.2 |
| CCc1cc(C(=O)Nc2nc(-c3ccc(C)c(C)c3)c(C)s2)cs1 [Compound 23] | 2.22 | 29.1 |
| Cc1ccc(-c2csc(NC(=O)c3cccc4ccccc34)n2)c(C)c1 [Compound 24] | 1.34 | 24.5 |
| CC(=O)Oc1ccccc1C(=O)Nc1ncc([N+](=O)[O-])s1 [NTZ, nitazoxanide, reference compound] | 19.4 | 66.7 |
| O=C(Nc1ncc([N+](=O)[O-])s1)c1ccccc1O [TIZ, tizoxanide, reference compound] | 22.4 | 82.9 |
